In patent EP0726951B1, “MANUFACTURE AND USE OF POLYPEPTIDES TAGGED USING BINDING MOLECULES” (MEDICAL RESEARCH COUNCIL, priority 1993, dated 1995):

Assays:
calmodulin [1] = target: T1, calmodulin (Homo sapiens, UniProt P0DP23); settings: cited from earlier work
calmodulin [2] = target: T1, calmodulin; assay: native gel autoradiography of calmodulin with radiolabelled melatonin; type: binding; settings: 15% polyacrylamide gel, 0.5mM CaCl2, no SDS
Protocol: In order to assess this, 1µl calmodulin (lmg/ml) was incubated with 1µCi 2-[^125I]-melatonin in 9µl TBSC and run on a 15% polyacrylamide gel. The gel was as the running gel of Laemmli (Nature 1970 220 680-685), but with 0.5mM CaCl2 and no SDS in both gel and buffer.

calmodulin [3] = target: T1, calmodulin; settings: published value; cited from earlier work

Row | Molecule | Ka (calmodulin [1]; affinity for calmodulin) [M⁻¹] | Kd (calmodulin [1]; binds calmodulin) [nM] | radioactive band of complex with calmodulin (calmodulin [2]) | half-life of the calmodulin-melatonin complex (calmodulin [3]) [min]
1 | mastoparan | 3.3e+09 | 0.3 | – | –
2 | COc1ccc2[nH]cc(CCNC(C)=O)c2c1 [melatonin] | – | – | no complex is detected | 2
3 | COc1ccc2[nH]c([125I])c(CCNC(C)=O)c2c1 [2-[^125I]-melatonin] | – | – | no radioactive band was detected | –
